In brackets after ≈: the same amount, converted by molar mass.
What was measured:
Format in all cases: functional
[1] = system: Candida tropicalis; experiment: Antifungal activity against Candida tropicalis ATCC 1369 assessed as fungal growth inhibition incubated for 72 hrs by CLSI based susceptibility test
[2] = system: Cryptococcus neoformans; experiment: Antifungal activity against Cryptococcus neoformans ZKCC 2209 assessed as fungal growth inhibition incubated for 72 hrs by CLSI based susceptibility test
[3] = system: Aspergillus fumigatus; experiment: Antifungal activity against Aspergillus fumigatus KM8001 assessed as fungal growth inhibition incubated for 72 hrs by CLSI based susceptibility test
[4] = system: Nakaseomyces glabratus; experiment: Antifungal activity against Candida glabrata assessed as fungal growth inhibition incubated for 72 hrs by CLSI based susceptibility test
[5] = system: Candida albicans; experiment: Antifungal activity against Candida albicans SC5314 assessed as fungal growth inhibition incubated for 72 hrs by CLSI based susceptibility test

MIC50 [1] | MIC50 [2] | MIC50 [3] | MIC50 [4] | MIC50 [5] | SMILES
2 µg/mL (≈ 4.13 µM) | 2 µg/mL (≈ 4.13 µM) | 8 µg/mL (≈ 16.5 µM) | 0.25 µg/mL (≈ 0.516 µM) | 2 µg/mL (≈ 4.13 µM) | Cc1c(COc2cccc(CN[C@H](Cn3cncn3)C(=O)OC(C)C)c2)cccc1-c1ccccc1
2 µg/mL (≈ 4.34 µM) | 4 µg/mL (≈ 8.69 µM) | > 8 µg/mL | 0.5 µg/mL (≈ 1.09 µM) | 1 µg/mL (≈ 2.17 µM) | COC(=O)[C@@H](Cn1ccnc1)NC(=O)C1CCCN(C(=O)c2cccc(-c3ccccc3)c2)C1 (stereo not given in full)
0.5 µg/mL (≈ 1.05 µM) | 1 µg/mL (≈ 2.11 µM) | 4 µg/mL (≈ 8.43 µM) | 1 µg/mL (≈ 2.11 µM) | 0.5 µg/mL (≈ 1.05 µM) | CCOC(=O)[C@@H](Cn1ccnc1)NC(=O)C1CCCN(C(=O)c2cccc(-c3ccccc3)c2)C1 (stereo not given in full)
1 µg/mL (≈ 2.17 µM) | 1 µg/mL (≈ 2.17 µM) | 8 µg/mL (≈ 17.3 µM) | 0.5 µg/mL (≈ 1.08 µM) | 0.5 µg/mL (≈ 1.08 µM) | COC(=O)[C@@H](Cn1cncn1)NC(=O)C1CCCN(C(=O)c2cccc(-c3ccccc3)c2)C1 (stereo not given in full)
0.5 µg/mL (≈ 1.03 µM) | 2 µg/mL (≈ 4.14 µM) | 4 µg/mL (≈ 8.27 µM) | 0.5 µg/mL (≈ 1.03 µM) | 0.25 µg/mL (≈ 0.517 µM) | Cc1c(COc2cccc(CN[C@H](Cn3ccnc3)C(=O)OC(C)C)c2)cccc1-c1ccccc1
0.25 µg/mL (≈ 0.527 µM) | 1 µg/mL (≈ 2.11 µM) | > 8 µg/mL | 0.5 µg/mL (≈ 1.05 µM) | 0.25 µg/mL (≈ 0.527 µM) | CCOC(=O)[C@@H](Cn1ccnc1)NC(=O)C1CCCN(Cc2cccc(-c3ccccc3)c2C)C1 (stereo not given in full)
1 µg/mL (≈ 2.13 µM) | 2 µg/mL (≈ 4.25 µM) | 4 µg/mL (≈ 8.5 µM) | 0.25 µg/mL (≈ 0.531 µM) | 1 µg/mL (≈ 2.13 µM) | CCOC(=O)[C@@H](Cn1cncn1)NCc1cccc(OCc2cccc(-c3ccccc3)c2C)c1
2 µg/mL (≈ 4.39 µM) | 1 µg/mL (≈ 2.2 µM) | > 8 µg/mL | 1 µg/mL (≈ 2.2 µM) | 0.5 µg/mL (≈ 1.1 µM) | COC(=O)[C@@H](Cn1ccnc1)NCc1cccc(OCc2cccc(-c3ccccc3)c2C)c1
0.5 µg/mL (≈ 1.05 µM) | 2 µg/mL (≈ 4.21 µM) | > 8 µg/mL | 0.5 µg/mL (≈ 1.05 µM) | 0.25 µg/mL (≈ 0.526 µM) | CCOC(=O)[C@@H](Cn1cncn1)NC(=O)C1CCCN(C(=O)c2cccc(-c3ccccc3)c2)C1 (stereo not given in full)
0.5 µg/mL (≈ 1.05 µM) | 2 µg/mL (≈ 4.21 µM) | > 8 µg/mL | 0.5 µg/mL (≈ 1.05 µM) | 0.25 µg/mL (≈ 0.526 µM) | CCOC(=O)[C@@H](Cn1cncn1)NC(=O)C1CCCN(Cc2cccc(-c3ccccc3)c2C)C1 (stereo not given in full)
